From patent US10206399B2, “Herbicidal composition comprising uracil compound as active ingredient” (Dongbu Farm Hannong Co., Ltd., priority 2012, dated 2019)
Where two headings read alike, the source gives them in different places.

Assays:
[1] = tested on: corn
[2] = tested on: Digitaria sanguinalis; assay: Dry field farming herbicidal composition test, plant mortality; type: in vivo
Excerpt: (§1) X is % damage by uracil compound (a) of formula 1 at the rate of application of p kg/ha; Y is % damage by conventional herbicidal compound (b) at the rate of application of q kg/ha; and E is the expected damage caused by compounds (a) and (b) at a rate of application of p and q kg/ha.
(§2) The expected activity for a given combination of two herbicides can be calculated using equation 1 above.

[3] = tested on: Abutilon theophrasti; assay: as above; type: in vivo
Excerpt: as §1, §2

[4] = tested on: Aeschynomene indica; assay: as above; type: in vivo
Excerpt: as §1, §2

[5] = tested on: Echinochloa crus; assay: as above; type: in vivo
Excerpt: as §1, §2

[6] = tested on: Monochoria vaginalis; assay: Paddy field farming herbicidal composition test, plant mortality; type: in vivo
Excerpt: as §1, §2

[7] = tested on: Echinochloa crus; assay: as above; type: in vivo
Excerpt: as §1, §2

[8] = Digitaria sanguinalis, read-out: Digitaria sanguinalis mortality, measured value
[9] = Abutilon theophrasti, read-out: Abutilon theophrasti mortality, measured value
[10] = Aeschynomene indica, read-out: Aeschynomene indica mortality, measured value
[11] = Echinochloa, read-out: Echinochloa crus mortality, measured value
[12] = Pontederia vaginalis, read-out: Monochoria vaginalis mortality (measured value)

In the case of `CS(=O)(=O)c1cc(C(F)(F)F)ccc1C(=O)c1cnoc1C1CC1` [Isoxaflutole], the “Corn mortality, measured value” ([1]; 12.5 g/ha) is reported as 0, the “Corn mortality, measured value” ([1]; 25 g/ha) is reported as 0 and the “Corn mortality, measured value” ([1]; 50 g/ha) is reported as 0. For the same compound, the pest or weed control at 12.5 g/ha [2, 8] was 10%, the pest or weed control at 25 g/ha [2, 8] was 24% and the pest or weed control at 50 g/ha [2, 8] was 53%. The pest or weed control at 12.5 g/ha [3, 9] was 12%, the pest or weed control at 25 g/ha [3, 9] was 31% and the pest or weed control at 50 g/ha [3, 9] was 62%. The pest or weed control at 12.5 g/ha [4, 10] was 9%, the pest or weed control at 25 g/ha [4, 10] was 28% and the pest or weed control at 50 g/ha [4, 10] was 56%. For the same compound, the pest or weed control at 12.5 g/ha [5, 11] was 14%, the pest or weed control at 25 g/ha [5, 11] was 29% and the pest or weed control at 50 g/ha [5, 11] was 61%.

Work on `CCOc1ccccc1OS(=O)(=O)NC(=O)Nc1nc(OC)cc(OC)n1` [Ethoxysulfuron] yielded a pest or weed control at 15 g/ha [6, 12] of 20% and a pest or weed control at 15 g/ha [7, 11] of 10%.

For `NC1=C(Cl)C(=O)c2ccccc2C1=O` [Quinoclamine], the “Monochoria vaginalis mortality (measured value)” value (from here on “Monochoria vaginalis mortality”) ([6]; 450 g/ha) was 0 and the “Echinochloa crus mortality, measured value” (“Echinochloa crus mortality” for short) ([7]; 450 g/ha) was 0.

`COc1cc(OC)nc(NC(=O)NS(=O)(=O)c2c(C3=NOCC(C)O3)c(Cl)nn2C)n1` (stereo not shown) [Metazosulfuron] was tested, and the “Monochoria vaginalis mortality” value ([6]; 25 g/ha) was 40 and the “Echinochloa crus mortality” value ([7]; 25 g/ha) was 35.

With `COc1ncc(F)c2nc(S(=O)(=O)Nc3c(F)cccc3F)nn12` [Florasulam] the “Corn mortality, measured value” ([1]; 1 g/ha) was 0, the “Corn mortality, measured value” ([1]; 2 g/ha) was 0 and the “Corn mortality, measured value” ([1]; 4 g/ha) was 0. It also gave a Digitaria sanguinalis mortality, measured value ([2]; 1 g/ha) of 0%, a Digitaria sanguinalis mortality, measured value ([2]; 2 g/ha) of 0% and a Digitaria sanguinalis mortality, measured value ([2]; 4 g/ha) of 0%. The “Abutilon theophrasti mortality, measured value” (“Abutilon theophrasti mortality” below) ([3]; 1 g/ha) was 12, the “Abutilon theophrasti mortality” value ([3]; 2 g/ha) was 23 and the “Abutilon theophrasti mortality” value ([3]; 4 g/ha) was 54. The Aeschynomene indica mortality, measured value ([4]; 1 g/ha) was 8%, the Aeschynomene indica mortality, measured value ([4]; 2 g/ha) was 18% and the Aeschynomene indica mortality, measured value ([4]; 4 g/ha) was 46%. For the same compound, the Echinochloa crus mortality, measured value ([5]; 1 g/ha) was 0%, the Echinochloa crus mortality, measured value ([5]; 2 g/ha) was 0% and the Echinochloa crus mortality, measured value ([5]; 4 g/ha) was 0%.

In the case of `COc1cc(OC)nc(NC(=O)NS(=O)(=O)c2c(-c3nnn(C)n3)cnn2C)n1` [Azimsulfuron], the pest or weed control at 5 g/ha ([6]; Pontederia vaginalis, 5 g/ha, read-out: Monochoria vaginalis mortality (measured value)) is reported as 50% and the pest or weed control at 5 g/ha ([7]; Echinochloa, 5 g/ha, read-out: Echinochloa crus mortality (measured value)) is reported as 30%.

`CC(C)(NC(=O)C(Br)C(C)(C)C)c1ccccc1` (stereo not shown) [Bromobutide] showed a pest or weed control at 225 g/ha ([6]; Pontederia vaginalis, 225 g/ha, read-out: Monochoria vaginalis mortality (measured value)) of 50% and a pest or weed control at 225 g/ha ([7]; Echinochloa, 225 g/ha, read-out: Echinochloa crus mortality (measured value)) of 0%.

With `CCC1(CC2(c3cccc(Cl)c3)CO2)C(=O)c2ccccc2C1=O` (stereo not shown) [Indanofan] the pest or weed control at 37.5 g/ha [6, 12] was 0% and the pest or weed control at 37.5 g/ha [7, 11] was 25%.

With `CCCc1ccc2nc(Cl)c(S(=O)(=O)NC(=O)Nc3nc(OC)cc(OC)n3)n2n1` [Propyrisulfuron] the “Monochoria vaginalis mortality” value ([6]; 18 g/ha) was 45 and the “Echinochloa crus mortality” value ([7]; 18 g/ha) was 45.

For `CS(=O)(=O)c1ccc(C(=O)C2C(=O)CCCC2=O)c([N+](=O)[O-])c1` [Mesotrione], the “Corn mortality (measured value)” value ([1]; 15 g/ha) was 0, the “Corn mortality, measured value” ([1]; 15 g/ha) was 0 and the “Corn mortality (measured value)” value ([1]; 30 g/ha) was 0. For the same compound, the “Corn mortality, measured value” ([1]; 30 g/ha) was 0, the “Corn mortality (measured value)” value ([1]; 60 g/ha) was 1 and the “Corn mortality, measured value” ([1]; 60 g/ha) was 1. The “Digitaria sanguinalis mortality, measured value” (from here on “Digitaria sanguinalis mortality”) ([2]; 15 g/ha) was 0, the “Digitaria sanguinalis mortality” value ([2]; 30 g/ha) was 5 and the “Digitaria sanguinalis mortality” value ([2]; 60 g/ha) was 10. For the same compound, the pest or weed control at 15 g/ha [2, 8] was 0%, the pest or weed control at 30 g/ha [2, 8] was 5% and the pest or weed control at 60 g/ha [2, 8] was 10%. For the same compound, the “Abutilon theophrasti mortality” value ([3]; 15 g/ha) was 15, the “Abutilon theophrasti mortality” value ([3]; 30 g/ha) was 29 and the “Abutilon theophrasti mortality” value ([3]; 60 g/ha) was 58. For the same compound, the pest or weed control at 15 g/ha [3, 9] was 15%, the pest or weed control at 30 g/ha [3, 9] was 29% and the pest or weed control at 60 g/ha [3, 9] was 58%. For the same compound, the “Aeschynomene indica mortality, measured value” (“Aeschynomene indica mortality” for short) ([4]; 15 g/ha) was 11, the “Aeschynomene indica mortality” value ([4]; 30 g/ha) was 27 and the “Aeschynomene indica mortality” value ([4]; 60 g/ha) was 54. It also gave a pest or weed control at 15 g/ha [4, 10] of 11%, a pest or weed control at 30 g/ha [4, 10] of 27% and a pest or weed control at 60 g/ha [4, 10] of 54%. The “Echinochloa crus mortality” value ([5]; 15 g/ha) was 0, the “Echinochloa crus mortality” value ([5]; 30 g/ha) was 5 and the “Echinochloa crus mortality” value ([5]; 60 g/ha) was 15. It also gave a pest or weed control at 15 g/ha [5, 11] of 0%, a pest or weed control at 30 g/ha [5, 11] of 5% and a pest or weed control at 60 g/ha [5, 11] of 15%.

For `COCCOc1ccccc1S(=O)(=O)NC(=O)N=c1nc(OC)[nH]c(OC)n1` [Cinosulfuron], the pest or weed control at 10 g/ha [6, 12] was 30% and the pest or weed control at 10 g/ha [7, 11] was 20%.
